Results reported in the Kinase Knowledgebase extract (Sharma et al. 2016).
Values joined by “and” are separate entries in the source; they are usually repeats but may differ in a detail not shown here. Identical values can stand only once.

How the values were obtained:
[1] = target: MAPK14 (human) (UniProt Q16539); test: Inhibition of MAPK14 Kinase Activity by PHAS-I Assay; details: for inhibition: concentration not given here
[2] = target: MAPK14 (human) (UniProt Q16539); test: Inhibition of LPS Stimulated TNF Production by U937 Cells

MAPK14 (human), sequence (Q16539 whole entry, looked up): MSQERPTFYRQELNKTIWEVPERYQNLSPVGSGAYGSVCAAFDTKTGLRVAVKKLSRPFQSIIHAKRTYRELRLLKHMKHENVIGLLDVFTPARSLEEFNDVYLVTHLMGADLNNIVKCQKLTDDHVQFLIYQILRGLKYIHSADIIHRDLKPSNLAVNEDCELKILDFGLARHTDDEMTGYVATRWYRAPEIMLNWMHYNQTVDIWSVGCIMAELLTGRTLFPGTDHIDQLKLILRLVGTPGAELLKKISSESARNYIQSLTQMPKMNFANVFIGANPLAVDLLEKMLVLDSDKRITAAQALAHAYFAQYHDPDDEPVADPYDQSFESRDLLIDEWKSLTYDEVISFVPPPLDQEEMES

Structure (SMILES)	inhibition [1] [%]	inhibition ([2]; concentration not given here) [%]	also measured
COC(=O)C(C)NC(=O)Cn1nc(-c2ccc(F)cc2)c(-c2ccncc2)c1C (stereo unspecified)	44	1	
CCOC(=O)NC(=O)NCCc1[nH]nc(-c2ccc(F)cc2)c1-c1ccncc1	56	22	
Cc1c(-c2ccncc2)c(-c2ccc(F)cc2)nn1CC(=O)Nc1ccccc1OC(F)(F)F	91		IC50 [2]: > 10 µM
COc1ccc(S(=O)(=O)NCCc2[nH]nc(-c3ccc(F)cc3)c2-c2ccncc2)cc1	61	23	
Cc1ccc(S(=O)(=O)N[C@H](CCc2ccccc2)C(=O)NCc2[nH]nc(-c3ccc(F)cc3)c2-c2ccncc2)cc1	94		IC50 [2]: 10 µM
O=C(NCc1[nH]nc(-c2ccc(F)cc2)c1-c1ccncc1)C(F)(F)C(F)(F)C(F)(F)F	96	54	
O=S(=O)(NCCCc1[nH]nc(-c2ccc(F)cc2)c1-c1ccncc1)c1ccc(F)cc1	78	62	
O=C(NCCc1[nH]nc(-c2ccc(F)cc2)c1-c1ccncc1)c1ccccc1I	65	23	
CC1(C)[C@@H]2CC[C@]1(CCS(=O)(=O)NCc1[nH]nc(-c3ccc(F)cc3)c1-c1ccncc1)C(=O)C2		1	IC50 [1]: 0.045 µM
CCCCCCCCOc1cccc(NC(=O)Cn2nc(-c3ccc(F)cc3)c(-c3ccncc3)c2C)c1	86		IC50 [2]: > 10 µM
O=C(NCCc1[nH]nc(-c2ccc(F)cc2)c1-c1ccncc1)c1ccncc1	69	38	
CCCCCc1cccc(C(C)NC(=O)Cn2nc(-c3ccc(F)cc3)c(-c3ccncc3)c2C)c1 (stereo unspecified)	65	25	
COc1ccc(OC)c(NC(=O)NCCc2[nH]nc(-c3ccc(F)cc3)c2-c2ccncc2)c1	76		IC50 [2]: 0.88 µM
C[C@H](NS(=O)(=O)[C@]12CC[C@@H](CC1=O)C2(C)C)c1[nH]nc(-c2ccc(F)cc2)c1-c1ccncc1		39	IC50 [1]: 0.83 µM
O=S(=O)(NCCc1[nH]nc(-c2ccc(F)cc2)c1-c1ccncc1)C(F)(F)F	82	66	
O=C(NCc1[nH]nc(-c2ccc(F)cc2)c1-c1ccncc1)Nc1ccccc1F	23		IC50 [2]: 2.05 µM
O=S(=O)(NCCc1[nH]nc(-c2ccc(F)cc2)c1-c1ccncc1)c1ccccc1F	87	36	
O=S(=O)(NCCCc1[nH]nc(-c2ccc(F)cc2)c1-c1ccncc1)c1ccc(F)cc1F	52	60	
CC(=O)Nc1ccc(S(=O)(=O)N[C@@H](C)c2[nH]nc(-c3ccc(F)cc3)c2-c2ccncc2)cc1		73	IC50 [1]: 0.059 µM
O=C(NCCc1[nH]nc(-c2ccc(F)cc2)c1-c1ccncc1)Nc1ccc(Oc2ccccc2)cc1	63	24	
O=C(NCCCc1[nH]nc(-c2ccc(F)cc2)c1-c1ccncc1)[C@@H]1CCCN1	85		IC100 [2]: 0.36 µM
O=C(NCc1[nH]nc(-c2ccc(F)cc2)c1-c1ccncc1)Nc1ccc(I)cc1	27	35	
CC(=O)O[C@@H](C)C(=O)NCCc1[nH]nc(-c2ccc(F)cc2)c1-c1ccncc1	57	73	
Cc1c(-c2ccncc2)c(-c2ccc(F)cc2)nn1CC(=O)N(CC1CC1)C(C)Cc1ccc(Cl)cc1 (stereo unspecified)	83	22	
COC(=O)[C@@H]1CCCN1C(=O)Cn1nc(-c2ccc(F)cc2)c(-c2ccncc2)c1C	60	39	

Structure (SMILES)	inhibition [1] [%]	inhibition ([2]; concentration not given here) [%]	also measured
Cc1c(-c2ccncc2)c(-c2ccc(F)cc2)nn1CC(=O)Nc1ccccc1Sc1ccc([N+](=O)[O-])cn1	90	18	
CN(C(=O)NCc1[nH]nc(-c2ccc(F)cc2)c1-c1ccncc1)c1ccccc1		18	IC50 [1]: 0.53 µM
CC(=O)OCC(=O)NCCCc1[nH]nc(-c2ccc(F)cc2)c1-c1ccncc1	74		IC50 [2]: 0.68 µM
COc1cc(OC)c(NC(=O)NCc2[nH]nc(-c3ccc(F)cc3)c2-c2ccncc2)cc1O	4	14	
Cc1[nH]nc(-c2ccc3c(c2)CCCO3)c1-c1ccncc1			IC50 [1]: 0.8 µM; IC50 [2]: 0.208 µM
O=S(=O)(NCCc1[nH]nc(-c2ccc(F)cc2)c1-c1ccncc1)c1ccccc1	88	20	
CC1(C)[C@H]2CC[C@@]1(CCS(=O)(=O)NCc1[nH]nc(-c3ccc(F)cc3)c1-c1ccncc1)C(=O)C2		11	IC50 [1]: < 0.1 µM
Cc1c(-c2ccncc2)c(-c2ccc(F)cc2)nn1CC(=O)N(CC(C)C)CC(C)C	55		IC50 [2]: > 10 µM
O=C(NCCc1[nH]nc(-c2ccc(F)cc2)c1-c1ccncc1)Nc1cccc2ccccc12	83	39	
COC(=O)[C@H](CSCc1ccccc1)NC(=O)Cn1nc(-c2ccc(F)cc2)c(-c2ccncc2)c1C	84		IC50 [2]: > 10 µM
O=S(=O)(/C=C/c1ccccc1)NCCc1[nH]nc(-c2ccc(F)cc2)c1-c1ccncc1	58	10	
O=C(Cc1cccs1)NCCc1[nH]nc(-c2ccc(F)cc2)c1-c1ccncc1	68	41	
Cc1ccc(NC(=O)Cn2nc(-c3ccc(F)cc3)c(-c3ccncc3)c2C)cc1	85		IC50 [2]: > 10 µM
O=C(NCCc1[nH]nc(-c2ccc(F)cc2)c1-c1ccncc1)c1ccccc1C(F)(F)F	54	27	
O=C(NCCc1[nH]nc(-c2ccc(F)cc2)c1-c1ccncc1)Nc1ccc(-c2ccccc2)cc1	35	26	
Cc1cccc(S(=O)(=O)NCc2[nH]nc(-c3ccc(F)cc3)c2-c2ccncc2)c1		82	IC50 [1]: 0.47 µM
CCNC(=O)NCCc1[nH]nc(-c2ccc(F)cc2)c1-c1ccncc1	67	65	
CC(=O)O[C@H](C)C(=O)NCCCc1[nH]nc(-c2ccc(F)cc2)c1-c1ccncc1	82		IC50 [2]: 0.57 µM
CCN(CC)C(=O)Cn1nc(-c2ccc(F)cc2)c(-c2ccncc2)c1C	54	36	
CC(C)c1ccc(NC(=O)NCCc2[nH]nc(-c3ccc(F)cc3)c2-c2ccncc2)cc1	50	5	
Cc1cc(C)c(NC(=O)NCCc2[nH]nc(-c3ccc(F)cc3)c2-c2ccncc2)c(C)c1	57	47	
C=CCN(C(=O)Cn1nc(-c2ccc(F)cc2)c(-c2ccncc2)c1C)C1CCCCC1	50	6	
COc1ccc(CC(=O)NCCCc2[nH]nc(-c3ccc(F)cc3)c2-c2ccncc2)cc1OC	67	67	
O=C(NCc1[nH]nc(-c2ccc(F)cc2)c1-c1ccncc1)[C@@H]1CCCN1C(=O)C(F)(F)F	96	52	
CC1(C)[C@H]2CC[C@@]1(CS(=O)(=O)NCCCc1[nH]nc(-c3ccc(F)cc3)c1-c1ccncc1)C(=O)C2		38	IC50 [1]: < 0.1 µM

Structure (SMILES)	inhibition [1] [%]	inhibition ([2]; concentration not given here) [%]	also measured
Cc1cccc(OC(=O)c2ccc(NC(=O)Cn3nc(-c4ccc(F)cc4)c(-c4ccncc4)c3C)cc2)c1	89	7	
CC1(C)[C@H]2CC[C@@]1(CS(=O)(=O)NCCc1[nH]nc(-c3ccc(F)cc3)c1-c1ccncc1)C(=O)C2		26	IC50 [1]: < 0.1 µM
CCN(CC)C1CCN(C(=O)Cn2nc(-c3ccc(F)cc3)c(-c3ccncc3)c2C)C1 (stereo unspecified)	40		inhibition [2]: 59 µM
COc1ccc(NC(=O)N2CCC(c3[nH]nc(-c4ccc(F)cc4)c3-c3ccncc3)CC2)c(OC)c1			IC50 [1]: < 0.1 µM; IC50 [2]: 0.44 µM
CC(=O)OC(C)(C)C(=O)NCCc1[nH]nc(-c2ccc(F)cc2)c1-c1ccncc1	70	71	
CCC(C(=O)NCc1[nH]nc(-c2ccc(F)cc2)c1-c1ccncc1)c1ccccc1 (stereo unspecified)	94	76	
O=S(=O)(NCCc1[nH]nc(-c2ccc(F)cc2)c1-c1ccncc1)c1ccc(Cl)c(Cl)c1		36	IC50 [1]: 0.33 µM
CCOC(=O)NCCc1[nH]nc(-c2ccc(F)cc2)c1-c1ccncc1	79	55	
CC1(C)[C@@H]2CC[C@]1(CS(=O)(=O)NCCCc1[nH]nc(-c3ccc(F)cc3)c1-c1ccncc1)C(=O)C2		59	IC50 [1]: < 0.1 µM
C[C@H](NS(=O)(=O)c1cc(Cl)cc(Cl)c1O)c1[nH]nc(-c2ccc(F)cc2)c1-c1ccncc1		76	IC50 [1]: 0.17 µM
O=S(=O)(NCCc1[nH]nc(-c2ccc(F)cc2)c1-c1ccncc1)c1cccs1	87	53	
CSc1cccc(NC(=O)NCCc2[nH]nc(-c3ccc(F)cc3)c2-c2ccncc2)c1	47	37	
Cn1cc(-c2ccncc2)c(-c2ccc(F)cc2)n1			IC50 [1]: 0.7 µM; IC50 [2]: 0.0967 µM and 0.13 µM
CNC(=O)NCCc1[nH]nc(-c2ccc(F)cc2)c1-c1ccncc1	68	68	
O=S(=O)(NCc1[nH]nc(-c2ccc(F)cc2)c1-c1ccncc1)C(F)(F)F			IC50 [1]: 2.4 µM; IC50 [2]: > 1 µM
O=C(NCCc1[nH]nc(-c2ccc(F)cc2)c1-c1ccncc1)[C@@H]1CCCN1	89		IC50 [2]: 0.76 µM
O=C(NCCc1[nH]nc(-c2ccc(F)cc2)c1-c1ccncc1)Nc1cc(Cl)ccc1Cl	61	39	
O=C(NCCCc1[nH]nc(-c2ccc(F)cc2)c1-c1ccncc1)C1CCCC1	79	66	
O=S(=O)(NCc1[nH]nc(-c2ccc(F)cc2)c1-c1ccncc1)c1ccc(OC(F)(F)F)cc1	42		IC50 [2]: 3.63 µM
CC(=O)NCCc1[nH]nc(-c2ccc(F)cc2)c1-c1ccncc1	78	79	
C[C@H](NC(=O)NCCCc1[nH]nc(-c2ccc(F)cc2)c1-c1ccncc1)c1ccccc1	85	37	
COc1ccc(CC(=O)NCCc2[nH]nc(-c3ccc(F)cc3)c2-c2ccncc2)cc1OC	61	24	
O=C(NCCc1[nH]nc(-c2ccc(F)cc2)c1-c1ccncc1)c1ccccn1	52	34	
